Test results from patent publication US8946260B2, “17α-hydroxylase/C17,20-lyase inhibitors” (Novartis AG, priority 2010, dated 2015).

target: T1, recombinant Human CYP17 enzyme (17-20 lyase) (Homo sapiens, UniProt P05093); test: Cytochrome P450, 17-20 lyase (CYP17-lyase) assay, 17-α-hydroxy pregnenolone [21-3H] as substrate; format: biochemical; settings: at 10 μM; read-out: hCYP17 Lyase % Inh
T1 construct: made in house; host or cells: A549 cells, adenoviral expression system; purified cell membrane preparations
T1 sequence (P05093 1-508): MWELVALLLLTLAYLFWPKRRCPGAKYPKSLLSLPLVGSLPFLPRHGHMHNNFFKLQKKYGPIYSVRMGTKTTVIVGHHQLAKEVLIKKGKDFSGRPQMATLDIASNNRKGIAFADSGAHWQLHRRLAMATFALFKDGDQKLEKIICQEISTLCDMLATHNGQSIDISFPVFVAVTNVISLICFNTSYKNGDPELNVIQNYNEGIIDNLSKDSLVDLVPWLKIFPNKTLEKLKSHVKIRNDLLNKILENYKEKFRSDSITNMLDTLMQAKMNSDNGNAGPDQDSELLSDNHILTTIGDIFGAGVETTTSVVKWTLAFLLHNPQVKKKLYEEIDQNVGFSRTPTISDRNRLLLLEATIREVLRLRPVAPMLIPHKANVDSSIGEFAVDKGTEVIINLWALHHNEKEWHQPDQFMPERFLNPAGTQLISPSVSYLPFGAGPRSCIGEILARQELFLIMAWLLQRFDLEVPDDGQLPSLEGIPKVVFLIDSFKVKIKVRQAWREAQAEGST
From the text: 1) Cytochrome P450, 17-20 Lyase (CYP17-Lyase) Assay Development Using Recombinant Human CYP17 Enzyme and 17-α-Hydroxy Pregnenolone [21-3H] as the Substrate.
Cytochrome P450, 17-α-Hydroxylase, 17-20 lyase (CYP17) is a multi functional enzyme that plays a key role in the biosynthesis of steroid hormones. It catalyses both conventional hydroxylation and also the carbon-carbon bond cleavage reactions (Peter Lee-Robichaud et al, Biochem. J, (1997) 321, 857-63). In the hydroxylation reaction, it converts progesterone and pregnenolone to the corresponding hydroxylated products 17-α-hydroxy progesterone and 17-α-hydroxy pregnenolone. In the lyase reaction, it catalyzes the conversion of these hydroxylated substrates to Androstenedione and Dehydroepiandrosterone (DHEA) respectively. In the Cyp17 lyase assay described here, the conversion of 17-α-hydroxy pregnenolone to Dehydroepiandrosterone and acetic acid is being monitored.
Assay method was adopted from a published protocol with some modifications to suit our requirements (Dmitry N Grigoryev et al, Analytical Biochemistry, (1999) 267, 319-330). The conversion of 17-α-hydroxy pregnenolone to Dehydroepiandrosterone is accompanied by the release of acetic acid. In the Cyp17 lyase assay, 17-α-hydroxy pregnenolone labeled with tritium (3H) at position 21 is used as the substrate. Chloroform extraction removes the radioactive steroids and acetic acid is taken into aqueous layer. The tritiated acetic acid released in the assay thus extracted is quantified to determine the enzyme activity.
Initial buffer conditions were, 50 mM Phosphate buffer, pH 7.5 was used as the starting buffer for Cyp17 lyase activity based on the data published in US patent publication No. US2004/0198773 A1. […] Human Cyp 17 gene was cloned and expressed in Adenoviral expression system in A549 cell lines. The purified cell membrane preparations were used as the source for Human CYP17 enzyme. Total protein concentration: 8 mg/mL.
For routine screening, the assay was set up with 16 μg of enzyme in 50 μL reaction volume. 17α-hydroxy pregnenolone [21-3H] was added to a final concentration of 0.25 μM. NADPH is used at a final concentration of 4.2 mM. Total reaction volume was made up to 50 μL with 50 mM Phosphate buffer pH 7.5. The reaction mixture was incubated at room temperature for 90 minutes with gentle shaking. The reaction was stopped by the addition of 100 μL of buffer. 500 μL of 5% freshly prepared activated charcoal was added to the solution and mixed well by vortexing. The samples were centrifuged at 17568×g for 5 minutes. (14000 rpm). The supernatant was carefully transferred to fresh tube and 1.3 mL of scintillation fluid was added, mixed by vortexing.
The radioactivity was measured in a 1450 MicroBeta TriLux™ scintillation counter from Wallac-Perkin Elmer®, USA. The measurements were carried out in 2.0 mL Eppendorf™ tubes. Each tube was counted for 1 minute. The amount of tritiated acetic acid released is proportional to the lyase activity. Percent lyase activity in presence of inhibitor was calculated using the formula given below.
[formula] • Sample: Enzyme reaction in presence of inhibitor. • Positive control: Enzyme reaction without inhibitor but containing DMSO at 1% final concentration. • Blank—Contains all reagents except enzyme. • % Inhibition=100%−% Lyase activity
For IC50 determination, the % inhibition was plotted as a function of inhibitor concentration. The data was fitted to sigmoidal equation using Graphpad Prism® software IV to generate IC50 values.

Point of comparison: O=C1c2ccsc2CCN1c1cccnc1 [Example 8A, 5-Pyridin-3-yl-6,7-dihydro-5H-thieno[3,2-c]pyridin-4-one], inhibition at 10 µM 27%. Against it:
- Cc1ccncc1N1CCc2ccsc2C1=O [Example 5A, 6-(4-Methyl-pyridin-3-yl)-5,6-dihydro-4H-thieno[2,3-c]pyridin-7-one] — higher, 91%
- O=C1c2sccc2CCN1c1cccnc1 [Example 6A, 6-Pyridin-3-yl-5,6-dihydro-4H-thieno[2,3-c]pyridin-7-one] — higher, 48%
- Cc1ccncc1N1CCc2sccc2C1=O [Example 7A, 5-(4-Methyl-pyridin-3-yl)-6,7-dihydro-5H-thieno[3,2-a]pyridin-4-one] — higher, 75%
- Cc1ccncc1N1CCc2c(Cl)cccc2C1=O [Example 12A, 5-Chloro-2-(4-methyl-pyridin-3-yl)-3,4-dihydro-2H-isoquinolin-1-one] — higher, 64%
- Cc1ccncc1N1CCc2scc(-c3ccc(F)cc3)c2C1=O [Example 15A, 3-(4-Fluoro-phenyl)-5-(4-methyl-pyridin-3-yl)-6,7-dihydro-5H-thieno[3,2-c]pyridin-4-one] — higher, 35%
- Cc1ccncc1N1CCc2c(cccc2C(F)(F)F)C1=O [Example 22A, 2-(4-Methyl-pyridin-3-yl)-5-trifluoromethyl-3,4-dihydro-2H-isoquinolin-1-one] — higher, 42%
- Cc1ccncc1-n1ccc2ccc(NC(=O)C3CC3)cc2c1=O [Example 24A, Cyclopropanecarboxylic acid [2-(4-methyl-pyridin-3-yl)-1-oxo-1,2-dihydro-isoquinolin-7-yl]-amide] — higher, 53%
- Cc1ccncc1N1CCc2ccc(NC(=O)C3CC3)cc2C1=O [Example 25A, Cyclopropanecarboxylic acid [2-(4-methyl-pyridin-3-yl)-1-oxo-1,2,3,4-tetrahydro-isoquinolin-7-yl]-amide] — higher, 35%
- Cc1ccncc1-n1ccc2ccc(C(F)(F)F)cc2c1=O [Example 29A, 2-(4-Methyl-pyridin-3-yl)-7-trifluoromethyl-2H-isoquinolin-1-one] — higher, 66%
- Cc1ccncc1N1CCc2ccc(Nc3ccccc3)cc2C1=O [Example 30A, 2-(4-methylpyridin-3-yl)-7-(phenylamino)-3,4-dihydroisoquinolin-1(2H)-one] — higher, 41%

same assay, conditions: human CYP17 lyase; substrate 0.25 μM; room temperature, 90 minutes; read-out: Lyase IC 50 nM Human

Point of comparison: O=C1c2cc(Cl)ccc2CCN1c1cccnc1 [Example 1A, 7-Chloro-2-pyridin-3-yl-3,4-dihydro-2H-isoquinolin-1-one], IC50 60 nM. Against it:
- Cc1ccncc1N1CCc2ccc(Cl)cc2C1=O [Example 2A, 7-Chloro-2-(4-methyl-pyridin-3-yl)-3,4-dihydro-2H-isoquinolin-1-one] — 1.6-fold lower, 37 nM
- Cc1ccncc1N1CCc2ccc(-c3ccc(F)cc3)cc2C1=O [Example 3A, 7-(4-Fluoro-phenyl)-2-(4-methyl-pyridin-3-yl)-3,4-dihydro-2H-isoquinolin-1-one] — 20-fold higher, 1210 nM
- Cc1ccncc1N1CCc2ccc(C(F)(F)F)cc2C1=O [Example 4A, 2-(4-Methyl-pyridin-3-yl)-7-trifluoromethyl-3,4-dihydro-2H-isoquinolin-1-one] — 11-fold lower, 5.5 nM
- Cc1ccncc1N1CCc2sc3ccccc3c2C1=O [Example 9A, 2-(4-Methyl-pyridin-3-yl)-3,4-dihydro-2H-benzo[4,5]thieno[3,2-c]pyridin-1-one] — 40-fold lower, 1.5 nM
- Cc1ccncc1N1CCc2ccc3ccccc3c2C1=O [Example 10A, 2-(4-Methyl-pyridin-3-yl)-3,4-dihydro-2H-benzo[h]isoquinolin-1-one] — 17-fold lower, 3.5 nM
- COc1ccc2c(c1)CCN(c1cnccc1C)C2=O [Example 11A, 6-Methoxy-2-(4-methyl-pyridin-3-yl)-3,4-dihydro-2H-isoquinolin-1-one] — 3.6-fold higher, 214 nM
- Cc1ccncc1N1CCc2cc(O)ccc2C1=O [Example 11B, 6-Hydroxy-2-(4-methyl-pyridin-3-yl)-3,4-dihydro-2H-isoquinolin-1-one] — 2.3-fold higher, 139 nM
- COc1cccc2c1CCN(c1cnccc1C)C2=O [Example 13A, 5-Methoxy-2-(4-methyl-pyridin-3-yl)-3,4-dihydro-2H-isoquinolin-1-one] — 15-fold higher, 917 nM
- Cc1ccncc1N1CCc2sc(-c3ccc(F)cc3)cc2C1=O [Example 14A, 2-(4-Fluoro-phenyl)-5-(4-methyl-pyridin-3-yl)-6,7-dihydro-5H-thieno[3,2-c]pyridin-4-one] — 13-fold higher, 755 nM
- O=C1c2cc(C(F)(F)F)ccc2CCN1c1cccnc1 [Example 16A, 2-Pyridin-3-yl-7-trifluoromethyl-3,4-dihydro-2H-isoquinolin-1-one] — 2.9-fold higher, 175 nM
- Cc1ccncc1N1CCc2cc(C(F)(F)F)ccc2C1=O [Example 17A, 2-(4-Methyl-pyridin-3-yl)-6-trifluoromethyl-3,4-dihydro-2H-Isoquinolin-1-one] — 1.6-fold higher, 95 nM
- O=C1c2cc(C(F)(F)F)ccc2CCN1c1cncc(F)c1 [Example 18A, 2-(5-Fluoro-pyridin-3-yl)-7-trifluoromethyl-3,4-dihydro-2H-isoquinolin-1-one] — 5.6-fold higher, 334 nM
- O=C1c2cc(C(F)(F)F)ccc2CCN1c1cncc2ccccc12 [Example 19A, 7-Trifluoromethyl-3,4-dihydro-[2,4′]biisoquinolinyl-1-one] — within 1.5-fold, 44 nM
- Cc1ccncc1N1CC(C)(C)c2ccc(C(F)(F)F)cc2C1=O [Example 20A, 4,4-Dimethyl-2-(4-methyl-pyridin-3-yl)-7-trifluoromethyl-3,4-dihydro-2H-isoquinolin-1-one] — 6.2-fold higher, 369 nM
- O=C1c2cc(C(F)(F)F)ccc2CCN1c1cnccc1C(F)(F)F [Example 21A, 7-Trifluoromethyl-2-(4-trifluoromethyl-pyridin-3-yl)-3,4-dihydro-2H-isoquinolin-1-one] — within 1.5-fold, 56 nM
- Cc1ccncc1N1CCc2ccccc2C1=O [Example 23A, 2-(4-Methyl-pyridin-3-yl)-3,4-dihydro-2H-isoquinolin-1-one] — 3.8-fold higher, 227 nM
- COc1ccc2c(c1)C(=O)N(c1cnccc1C)CC2 [Example 26A, 7-Methoxy-2-(4-methyl-pyridin-3-yl)-3,4-dihydro-2H-isoquinolin-1-one] — 3.5-fold lower, 17 nM
- Cc1ccncc1N1CCc2ccc(O)cc2C1=O [Example 27A, 7-Hydroxy-2-(4-methyl-pyridin-3-yl)-3,4-dihydro-2H-isoquinolin-1-one] — within 1.5-fold, 83 nM
- CCn1ccc2c1C(=O)N(c1cnccc1C)CC2 [Example 28A, 1-Ethyl-6-(4-methyl-pyridin-3-yl)-1,4,5,6-tetrahydro-pyrrolo[2,3-c]pyridin-7-one] — within 1.5-fold, 70 nM
- Cc1ccncc1N1CCc2ccc(OCC3CC3)cc2C1=O [Example 31A, 7-(cyclopropylmethoxy)-2-(4-methylpyridin-3-yl)-3,4-dihydroisoquinolin-1 (2H)-one] — 12-fold higher, 727 nM
- Cc1ccncc1N1CCc2ccc(C#N)cc2C1=O [Example 32A, 2-(4-methylpyridin-3-yl)-1-oxo-1,2,3,4-tetrahydroisoquinoline-7-carbonitrile] — 5-fold higher, 301 nM
